Data published in patent US20220142983A1, “METHODS OF TREATING CANCER WITH FARNESYLTRANSFERASE INHIBITORS” (Kura Oncology, Inc., priority 2019, published 2022).

Assays:
Format in all cases: in vivo, human
[1] = test system: newly diagnosed elderly patients with poor risk AML; assay: Tipifarnib clinical study in newly diagnosed elderly patients with poor risk AML; details: for PFS: N=34
Experimental: (§1) Clinical studies with tipifarnib were performed in newly diagnosed elderly patients with poor risk AML or relapsed and refractory AML. In these studies, patient selection was not based on genetic markers. Anecdotal evidence of tipifarnib single agent activity was reported.
Patient subset—available AML marrow samples with NRAS WT or unknown, N=27 (NCBI GEO, GSE8970).
Since achievement of CR is the main driver of clinical benefit in AML, additional screenings were conducted to differentiate the CR responses vs HI/SD responses in the higher RHOE expression levels subset of FIG. 3A (replicated in FIG. 4A).
Another screening conducted to differentiate the CR responses and HI/SD responses from PD responses was based on both RHOE expression levels and RHOA expression levels of the subjects shown in FIG. 3A (replicated in FIG. 5). RHOA mRNA expression data was generated by RNASeq and expressed as RNA Seq V2 RSEM.
The mRNA expression profiling data from the clinical study with newly diagnosed elderly patients with poor risk AML were also analyzed for CXCR3, CXCL12, and RHOE. Patient subset—available AML marrow samples with NRAS WT, unknown, N-12, N12/N13, or N61 (1,2); N=34. […] Probe 207681 used for CXCR3 in the GPL96 Affimetrix microarray. The combination of the CXCR3 expression levels and CXC12 expression levels of newly-diagnosed elderly, frail AML patients, also correlated with treatment response. In particular, the product (multiplication) of the CXCR3 (“receptor”) expression levels and the CXCL12 (“ligand”) expression levels further differentiated the CR and HI/SD responses from the PD responses in the AML patients treated with tipifarnib. […] PFS in the high CXCL12×CXCR3 product subset was 433 days vs. 64 days in the low expressing product subset (HR=0.24, p=0.005, N=34).

[2] = test system: relapsed and refractory AML patients; assay: Tipifarnib clinical study in relapsed and refractory AML patients
Experimental: as §1

[3] = test system: relapsed/refractory CMML patients; assay: Tipifarnib clinical study in relapsed/refractory CMML patients
Experimental: Clinical studies with tipifarnib were performed in relapsed/refractory CMML patients (N=20) receiving tipifarnib as a single agent orally, twice a day (bid) for 7 days in alternating weeks (Days 1-7 and 15-21) in 28 day cycles. Eligible patients received tipifarnib administered at a starting dose of 1200 mg or 900 mg, orally with food, bid for 7 days in alternating weeks (Days 1-7 and 15-21) in 28 day cycles. Stepwise 300 mg dose reductions to control treatment-related, treatment-emergent toxicities were allowed.
Inclusion Criteria for this clinical study include: (a) diagnosis of CMML as defined by the World Health Organization (WHO) criteria; (b) Eastern Cooperative Oncology Group (ECOG) performance status 0 or 1; (c) subject is willing and able to comply with scheduled visits, treatment plans, laboratory tests and other procedures (including bone marrow assessments); (d) at least 1 week since the last systemic therapy regimen prior to Cycle 1 Day 1, subjects on a stable dose of hydroxyurea for at least 2 weeks prior to Cycle 1 Day 1 may continue on hydroxyurea until Cycle 1 Day 7, and subjects must have recovered to NCI CTCAE v. […] Both females and male subjects with female partners of child-bearing potential must agree to use an adequate method of contraception for 2 weeks prior to screening, during, and at least 4 weeks after last dose of study medication. Female subjects must have a negative serum or urine pregnancy test within 72 hours prior to start of study medication. Not breast feeding at any time during the study; and (h) written and voluntary informed consent understood, signed and dated. […]

[4] = higher pre-treatment CXCL12xCXCR3 product levels (20,000 or more) (FIG. 7)
[5] = lower RHOE expression levels (FIG. 3A)
[6] = lower pre-treatment CXCL12xCXCR3 product levels (less than 20,000) (FIG. 7)

Cn1cncc1[C@@](N)(c1ccc(Cl)cc1)c1ccc2c(c1)c(-c1cccc(Cl)c1)cc(=O)n2C [tipifarnib]
median progression free survival ([1]; CXCR3 expression levels in the first quartile (FIG. 9)): about 10 days | median progression free survival ([1]; CXCR3 expression levels in the fourth quartile, p=0.0004 (FIG. 9)): 406 days | median progression free survival ([1]; CXCR3 expression levels in the second quartile (FIG. 9)): about 70 days | median progression free survival ([1]; CXCR3 expression levels in the third quartile (FIG. 9)): 248 days | median progression free survival ([1]; RND3 expression levels greater than or equal to 144 (higher RHOE) (FIG. 3B)): 8.2 months | median progression free survival ([1]; RND3 expression levels less than 144 (lower RHOE) (FIG. 3B)): 2.2 months | PFS ([1]; high CXCL12xCXCR3 product subset): 433 days | PD responses ([1]; higher RHOE expression levels (FIG. 3A)): 1 out of 14 | CR responses [1, 4]: 8 out of 14 subjects | PD responses [1, 4]: 0 out of 14 | SD/HI responses [1, 4]: 6 out of 14 subjects | PFS ([1]; low expressing CXCL12xCXCR3 product subset): 64 days | CR responses [1, 5]: 0 out of 13 subjects | PD responses [1, 5]: 7 out of 13 subjects | CR responses [1, 6]: 1 out of 20 subjects | PD responses [1, 6]: 13 out of 20 subjects | SD/HI responses [1, 6]: 6 out of 20 subjects | HR (PFS, high vs low CXCL12xCXCR3 product subset) ([1]; p=0.005, N=34): 0.24 | CR responses ([1]; treatment naive elderly, frail AML patients with higher RHOE expression levels (FIG. 3A)): 8 out of 14 subjects | mPFS percentage ([2]; CXCR3 expression levels in the first tertiale, N=58 (FIG. 10)): 54 days | mPFS percentage ([2]; CXCR3 expression levels in the second tertiale, N=58 (FIG. 10)): 75 days | mPFS percentage ([2]; CXCR3 expression levels in the third tertiale, N=58, p=0.009 (FIG. 10)): 182 days | median Time to Treatment Failure (TTF) ([3]; tertiale 1 (lowest PRICKLE2 expression), tipifarnib single agent (FIG. 11)): 99 days | median Time to Treatment Failure (TTF) ([3]; tertiale 2 of PRICKLE2 expression, tipifarnib single agent (FIG. 11)): 84 days | median Time to Treatment Failure (TTF) ([3]; tertiale 3 (highest PRICKLE2 expression), tipifarnib single agent, p=0.047 vs tertiale 1 (FIG. 11)): 288 days
